Measured values: article PMC9101642 (Molecules, 2022)
Like-named read-outs stand apart in the source and are kept apart here. Marks after values point to notes of the source that are not given here.

Assays:
MCF-7 cell lines = test: MTT antiproliferative assay; assay type: cell-based, human; settings: for IC50: Homo sapiens, read-out: MCF-7 (IC50 nM); for MCF-7 antiproliferative potency, fold higher than Ral / MCF-7 antiproliferative potency, fold lower than 3DPQ-12: ratio of IC50 values
MDA-MB-231 cell lines = test: MTT antiproliferative assay; assay type: cell-based, human; settings: Homo sapiens, read-out: MDA-MB-231 (IC50 nM)
[1] = test system: Ishikawa endometrial adenocarcinoma cells; test: Antiproliferative assay; assay type: cell-based; settings: Homo sapiens, growth inhibition
ERα = target: T1, ERα (Homo sapiens, UniProt P03372); test: ERα down-regulation immunofluorescence assay in MCF-7; assay type: cell-based; settings: ERα downregulation measured in MCF-7; read-out: MCF-7 DR (IC50 nM)
T1 sequence (P03372 1-595): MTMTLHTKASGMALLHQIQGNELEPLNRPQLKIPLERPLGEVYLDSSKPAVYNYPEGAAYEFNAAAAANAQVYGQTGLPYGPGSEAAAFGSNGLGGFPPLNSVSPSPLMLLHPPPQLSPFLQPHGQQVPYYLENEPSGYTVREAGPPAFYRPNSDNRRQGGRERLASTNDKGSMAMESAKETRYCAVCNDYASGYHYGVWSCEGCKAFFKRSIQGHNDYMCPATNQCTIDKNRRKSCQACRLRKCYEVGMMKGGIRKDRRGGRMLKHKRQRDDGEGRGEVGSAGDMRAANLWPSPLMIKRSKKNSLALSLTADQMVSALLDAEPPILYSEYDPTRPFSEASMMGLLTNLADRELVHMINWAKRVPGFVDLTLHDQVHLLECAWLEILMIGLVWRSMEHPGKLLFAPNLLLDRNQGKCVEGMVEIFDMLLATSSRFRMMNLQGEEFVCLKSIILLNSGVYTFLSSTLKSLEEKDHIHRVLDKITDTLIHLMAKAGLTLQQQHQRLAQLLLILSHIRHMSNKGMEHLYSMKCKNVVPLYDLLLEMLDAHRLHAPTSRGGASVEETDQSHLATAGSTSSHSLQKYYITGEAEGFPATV

[2] = test system: progesterone receptor (PR); test: ERα functional antagonism cell assay (PR as biomarker) in MCF-7; assay type: cell-based; settings: Homo sapiens, MCF7; progesterone receptor as biomarker for ERα antagonism in MCF-7
[3] = test system: p53 promoter activity (p21 promoter); test: qChIP of ERα-p53 interaction on the p21 promoter in MCF-7; assay type: cell-based, human
MCF-7 cells = test: Cell cycle distribution by flow cytometry; assay type: cell-based, human; settings: 24 h
[4] = test system: MNU-induced breast cancer; test: In vivo anticancer screening, MNU-induced mammary tumorigenesis; parameters: species or system female Wistar rats
[5] = Plasma protein binding determination; assay type: in vitro ADME, rat; settings: rat plasma, 37 °C, read-out: Rat PPB (%free)
Procedure, shortened: (§1)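 Mammary tumours induced in rats by MNU 50 mg/kg i.p. at day 50; after two weeks, compounds given orally at 5 or 50 mg/kg once daily for six weeks. Serum AST, ALT (340 nm), ALP (405 nm) and bilirubin measured; liver homogenate GSH, CAT, MDA by colorimetry; plasma binding by ultrafiltration at 37°C with BCA protein read-out.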

[6] = Liver oxidative stress markers after treatment of MNU-induced rats; assay type: in vivo, Wistar rats; parameters: CAT: unit not given here; settings: liver; for CAT: catalase activity; for GSH: reduced glutathione; for SOD (U/mg): superoxide dismutase activity; for TP: total protein content
Procedure, shortened: as §1

[7] = rat, in vivo
[8] = Lipophilicity by shake-flask method; settings: pH 7.4
[9] = Pharmacokinetics study, oral bioavailability; settings: rat
[10] = MTT antiproliferative assay (neutral control); settings: human
[11] = dose 50 mg/kg (compounds per os after MNU; MNU alone i.p.)

For `CC(=O)c1cc(C(=O)OC2/C=C/C(=O)O[C@@H](O)CCC/C=C/[C@@H]3C[C@H](O)C[C@@H]23)ccc1OCCN1CCC=C(C(=O)O)C1` (stereo partly drawn) [Compound 3DPQ-3, 1-(2-(2-acetyl-4-((((2E,6R,10E,11aS,13S,14aR)-6,13-dihydroxy-4-oxo-4,6,7,8,9,11a,12,13,14,14a-decahydro-1H-cyclopenta[f][1]oxacyclotridecin-1-yl)oxy)carbonyl)phenoxy)ethyl)-1,2,5,6-tetrahydropyridine-3-carboxylic acid], the IC50 (MCF-7 cell lines; MCF7, 48 h) was 0.61 ± 0.56 nM, the “MCF-7 antiproliferative potency, fold higher than Ral” value (MCF-7 cell lines) was 1.43 fold and the “MCF-7 antiproliferative potency, fold lower than 3DPQ-12” value (MCF-7 cell lines) was 1.11 fold. For the same molecule, the IC50 (MDA-MB-231 cell lines; MDA-MB-231, 48 h) was 86.63 ± 0.68 nM, the IC50 [1] was 0.84 ± 0.74 nM and the IC50 (ERα) was over 100 nM. The IC50 [2] was over 100 nM, the “p53 promoter activity, fold higher than the one provoked by Ral” value ([3]; higher concentration (1 nM)) was 0.61 fold and the “p53 promoter activity, fold higher than the one provoked by Ral” value ([3]; lower concentration (0.1 nM)) was 0.68 fold. The “Cell Cycle (%) G0/G1” value (MCF-7 cells; 0.1 nM) was 72.99 ± 1.32 *^,†,‡,§ %, the “Cell Cycle (%) G2/M” value (MCF-7 cells; 0.1 nM) was 18.03 ± 1.65 *^,†,‡,§ % and the “Cell Cycle (%) S” value (MCF-7 cells; 0.1 nM) was 8.98 ± 1.64 *^,†,‡,§ %. For the same molecule, the “Cell Cycle (%) G0/G1” value (MCF-7 cells; 1 nM) was 75.45 ± 1.53 *^,†,‡,§ %, the “Cell Cycle (%) G2/M” value (MCF-7 cells; 1 nM) was 14.87 ± 2.43 *^,†,‡,§ % and the “Cell Cycle (%) S” value (MCF-7 cells; 1 nM) was 9.69 ± 0.94 *^,†,‡,§ %. The “Tumor Burden (week)” value ([4]; dose 5 mg/kg per os after MNU) was 2.18 ± 0.69 *^,†,‡,‖ week, the “Tumor Latency (week)” value ([4]; dose 5 mg/kg per os after MNU) was 12 *^,†,‡ week and the “Tumor Volume (mm^3)” value ([4]; dose 5 mg/kg per os after MNU) was 0.78 ± 0.43 *^,†,‡,‖ mm^3. For the same molecule, the “Tumor Burden (week)” value [4, 11] was 1.16 ± 0.64 *^,†,§,┴ week, the “Tumor Latency (week)” value [4, 11] was 15 *^,†,§ week and the “Tumor Volume (mm^3)” value [4, 11] was 0.66 ± 0.21 *^,†,§,┴ mm^3. The fraction unbound at 5 mg/kg bwt [5] was 0.0134, the fraction unbound at 50 mg/kg bwt [5] was 0.0147 and the CAT ([6]; dose 5 mg/kg) was 17.46±0.82. For the same molecule, the CAT ([6]; dose 50 mg/kg) was 18.32±0.63, the “TBARS” value ([6]; dose 5 mg/kg) was 0.24 nmol/mg and the “TBARS” value ([6]; dose 50 mg/kg) was 0.56 ± 0.32 nmol/mg. The “GSH” value ([6]; dose 5 mg/kg) was 9.15 mg/g, the “GSH” value ([6]; dose 50 mg/kg) was 9.74 mg/g and the “SOD (U/mg)” value ([6]; dose 5 mg/kg) was 7.32±0.18 U/mg. For the same molecule, the “SOD (U/mg)” value ([6]; dose 50 mg/kg) was 11.46±0.36 U/mg, the “TP” value ([6]; dose 5 mg/kg) was 38.32 g/L and the “TP” value ([6]; dose 50 mg/kg) was 46.47 g/L. For the same molecule, the “WL after MFD (day 1, mg)” value [7] was 320,45 ± 0.62 mg, the logD at 30 min [8] was 2.07 and the BIO ([9]; oral 5 mg/kg) was 90. For the same molecule, the BIO ([9]; oral 50 mg/kg) was 93 and the IC50 at 48 h [10] was over 100 nM.
With `CC(=O)c1cc(C(=O)O[C@@H]2/C=C/C(=O)O[C@@H](O)CCC/C=C/[C@@H]3C[C@H](O)C[C@H]32)ccc1OCCN1CC(C(=O)O)=CCC1=O` [Compound 3DPQ-9, 1-(2-(2-acetyl-4-((((1R,2E,6R,10E,11aS,13S,14aR)-6,13-dihydroxy-4-oxo-4,6,7,8,9,11a,12,13,14,14a-decahydro-1H-cyclopenta[f][1]oxacyclotridecin-1-yl)oxy)carbonyl)phenoxy)ethyl)-6-oxo-1,2,5,6-tetrahydropyridine-3-carboxylic acid] the IC50 (MCF-7 cell lines; MCF7, growth inhibition, 48 h) was 0.62 ± 0.15 nM, the “MCF-7 antiproliferative potency, fold higher than Ral” value (MCF-7 cell lines) was 1.46 fold and the “MCF-7 antiproliferative potency, fold lower than 3DPQ-12” value (MCF-7 cell lines) was 1.09 fold. For the same molecule, the IC50 (MDA-MB-231 cell lines; MDA-MB-231, growth inhibition, 48 h) was 81.63 ± 0.42 nM, the IC50 [1] was 0.89 ± 0.24 nM and the IC50 (ERα) was over 100 nM. The IC50 [2] was over 100 nM, the “p53 promoter activity, fold higher than the one provoked by Ral” value ([3]; higher concentration (1 nM)) was 0.66 fold and the “p53 promoter activity, fold higher than the one provoked by Ral” value ([3]; lower concentration (0.1 nM)) was 0.68 fold. The “Cell Cycle (%) G0/G1” value (MCF-7 cells; 0.1 nM) was 71.47 ± 0.99 *^,†,‡,§ %, the “Cell Cycle (%) G2/M” value (MCF-7 cells; 0.1 nM) was 15.56 ± 2.65 *^,†,‡,§ % and the “Cell Cycle (%) S” value (MCF-7 cells; 0.1 nM) was 12.97 ± 1.65 *^,†,‡,§ %. For the same molecule, the “Cell Cycle (%) G0/G1” value (MCF-7 cells; 1 nM) was 75.93 ± 152 *^,†,‡,§ %, the “Cell Cycle (%) G2/M” value (MCF-7 cells; 1 nM) was 10.40 ± 3.54 *^,†,‡,§ % and the “Cell Cycle (%) S” value (MCF-7 cells; 1 nM) was 13.68 ± 1.74 *^,†,‡,§ %. For the same molecule, the “Tumor Burden (week)” value ([4]; dose 5 mg/kg per os after MNU) was 2.28 ± 0.47 *^,†,‡,‖ week, the “Tumor Latency (week)” value ([4]; dose 5 mg/kg per os after MNU) was 12 *^,†,‡ week and the “Tumor Volume (mm^3)” value ([4]; dose 5 mg/kg per os after MNU) was 0.77 ± 0.32 *^,†,‡,‖ mm^3. For the same molecule, the “Tumor Burden (week)” value [4, 11] was 1.14 ± 0.65 *^,†,§,┴ week, the “Tumor Latency (week)” value [4, 11] was 15 *^,†,§ week and the “Tumor Volume (mm^3)” value [4, 11] was 0.40 ± 0.43 *^,†,§,┴ mm^3. It also gave a fraction unbound at 5 mg/kg bwt [5] of 0.0128, a fraction unbound at 50 mg/kg bwt [5] of 0.0131 and a CAT ([6]; dose 5 mg/kg) of 10.83±0.46. The CAT ([6]; dose 50 mg/kg) was 13.32±0.54, the “TBARS” value ([6]; dose 5 mg/kg) was 0.96 nmol/mg and the “TBARS” value ([6]; dose 50 mg/kg) was 0.96 ± 0.24 nmol/mg. The “GSH” value ([6]; dose 5 mg/kg) was 8.66 mg/g, the “GSH” value ([6]; dose 50 mg/kg) was 8.89 mg/g and the “SOD (U/mg)” value ([6]; dose 5 mg/kg) was 7.74±0.37 U/mg. For the same molecule, the “SOD (U/mg)” value ([6]; dose 50 mg/kg) was 14.43±0.35 U/mg, the “TP” value ([6]; dose 50 mg/kg) was 39.43 g/L and the “WL after MFD (day 1, mg)” value [7] was 315.54 ± 0.65 mg. For the same molecule, the logD at 30 min ([8]; n-octanol/phosphate buffer) was 2.02, the BIO ([9]; oral 5 mg/kg) was 94 ^‡ and the BIO ([9]; oral 50 mg/kg) was 97. For the same molecule, the IC50 at 48 h ([10]; MRC-5 lung fibroblast cells) was over 100 nM.
